Where a name gives a salt, the structure may show the parent alone. Read-outs that look alike come from different tables or passages of the source.
Legend:
[1] = system: OE33 Esophageal Adenocarcinoma cell line; assay: OE33 Colony Formation Assay; type: cell-based; conditions: OE33 cells, 200 cells/well, 7 days, CellTiter-Glo
Procedure: OE33 Colony Formation Assay
The OE33 Esophageal Adenocarcinoma cell line was cultured and plated into 96-well tissue culture plates under sparse conditions (200 cells/well). Test compounds were serially diluted in DMSO and then into culture media (final DMSO concentration = 0.1%). Compound/media was then added to cells every 48 hours for a total of 7 days. Clonogenic growth was assessed using the CellTiter-Glo reagent, according to manufacturer (Promega) specifications. Percent inhibition was calculated as the percent of luminescence normalized to control (0.1% DMSO) wells. Nonlinear regression curve fitting was performed using GraphPad Prism software to determine EC50′s.

hNotch1ICD = biological target: T1, hNotch1ICD (Homo sapiens, UniProt P46531); assay: Notch1 Reporter Assay (Dox-inducible Notch1-ICD, CSL-responsive luciferase in 293A cells); type: cell-based
T1 construct: pLV[Tet]-Puro-TRE3G>Notch1-ICD; expressed in transfected cells; host or cells: 293A cells
Procedure: 293A cells expressing 1) pCMV-Tet-On 3G, 2) pLV[Tet]-Puro-TRE3G>Notch1-ICD, 3) pLV[Tet]-Puro-TRE3G>Notch2-ICD, 4) pLV[Tet]-Puro-TRE3G>Notch3-ICD, and 5) pCSL-RElement-Luc were used. When Doxycycline is added, the Tet-ON gene activates expression of hNotch1ICD, which together with endogenous NTC components binds to CSL responsive elements (pCSL-RElement-Luc) and expresses luciferase. 1 ×× 10^4 cells are plated in 100 µL (96-well format). 24 h later, compounds (10 mM stock in DMSO) are diluted in DMSO to 200X, then added (5 ul into 1 mL) to cell culture media containing 50 ng/mL Dox. This is then added 1:1 to cells. Final DMSO = 0.25%, Dox = 25 ng/mL. After 24 h, media is discarded, and cells are lysed in passive lysis buffer (Promega). Cells are rocked at room temperature for 15 min and then lysate is divided for luciferase assay (Luciferase Assay System, Promega) and cell viability (CellTiter Glo 2.0, Promega). Raw luciferase is normalized to cell viability, and then scaled to DMSO wells. Results are analyzed and IC50′s are determined in GraphPad by nonlinear regression curve fitting (4 parameter) of dose response curves.

[2] = 293A cells, 24 h, luciferase normalized to cell viability, read-out: Notch1 Reporter Assay IC50
[3] = value printed in the synthesis heading of the compound, read-out: Notch1 Reporter Assay IC50

T1 sequence (P46531 1754-2555 limits assumed): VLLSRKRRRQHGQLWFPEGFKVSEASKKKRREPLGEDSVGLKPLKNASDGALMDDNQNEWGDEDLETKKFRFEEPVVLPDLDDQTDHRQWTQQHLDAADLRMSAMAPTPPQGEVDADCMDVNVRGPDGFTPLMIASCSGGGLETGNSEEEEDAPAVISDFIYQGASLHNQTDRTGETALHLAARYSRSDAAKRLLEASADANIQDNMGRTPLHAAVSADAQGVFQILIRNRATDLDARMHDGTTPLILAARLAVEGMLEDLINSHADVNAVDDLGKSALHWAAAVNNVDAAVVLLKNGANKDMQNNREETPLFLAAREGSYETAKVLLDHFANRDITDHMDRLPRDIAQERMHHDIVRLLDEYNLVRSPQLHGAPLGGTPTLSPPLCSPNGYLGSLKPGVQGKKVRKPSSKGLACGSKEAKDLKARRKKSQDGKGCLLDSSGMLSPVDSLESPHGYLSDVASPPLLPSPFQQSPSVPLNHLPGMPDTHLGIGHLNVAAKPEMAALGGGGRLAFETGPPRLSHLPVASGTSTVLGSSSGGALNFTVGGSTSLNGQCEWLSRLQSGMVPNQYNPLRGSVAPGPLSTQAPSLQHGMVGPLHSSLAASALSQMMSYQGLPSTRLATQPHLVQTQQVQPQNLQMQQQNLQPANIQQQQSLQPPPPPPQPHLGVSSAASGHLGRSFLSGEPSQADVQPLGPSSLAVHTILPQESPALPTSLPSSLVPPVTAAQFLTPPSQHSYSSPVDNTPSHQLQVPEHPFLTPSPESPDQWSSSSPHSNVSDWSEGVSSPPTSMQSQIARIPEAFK

Structure (SMILES) | IC50 (hNotch1ICD; [2]) | further results
CC(C)Cn1c(=O)c(C(=O)Nc2ccccc2N2CCN(C)CC2)c(O)c2ccccc21 [568(02)] | 6.8 µM | EC50 ([1]; Homo sapiens, OE33, 168 h): 2.6 µM
CC(C)Cn1c(=O)c(C(=O)Nc2ccc(N3CCN(C)CC3)cc2)c(O)c2ccccc21 [569(02)] | 4.9 µM | EC50 ([1]; Homo sapiens, OE33, 168 h): 1.8 µM
CC(C)Cn1c(=O)c(C(=O)Nc2ccc(F)cc2N2CCN(C)CC2)c(O)c2ccccc21 [570(02)] | 5.6 µM | EC50 ([1]; Homo sapiens, OE33, 168 h): 2 µM
CC(C)Cn1c(=O)c(C(=O)Nc2cc(F)ccc2N2CCN(C)CC2)c(O)c2ccccc21 [571(02)] | 7.9 µM | EC50 ([1]; Homo sapiens, OE33, 168 h): 2.5 µM
CC(C)Cn1c(=O)c(C(=O)Nc2ccc(N3CCN(C)CC3)c(F)c2)c(O)c2ccccc21 [572(02)] |  | EC50 ([1]; Homo sapiens, OE33, 168 h): 2.2 µM
CC(C)Cn1c(=O)c(C(=O)Nc2cccc(F)c2)c(O)c2cc(N3CCN(C)CC3)ccc21 [577(02)] | 6.4 µM | EC50 ([1]; Homo sapiens, OE33, 168 h): 0.66 µM
CC(C)Cn1c(=O)c(C(=O)Nc2cc(F)c(N3CCN(C)CC3)c(F)c2)c(O)c2ccccc21 [582(02)] | 1.9 µM | EC50 ([1]; Homo sapiens, OE33, 168 h): 1.1 µM
CC(C)Cn1c(=O)c(C(=O)Nc2ccc(F)c(N3CCN(C)CC3)c2)c(O)c2ccccc21 [584(02)] | 6 µM | EC50 ([1]; Homo sapiens, OE33, 168 h): 2 µM
Cc1cccnc1NC(=O)c1c(O)c2ccccc2n(Cc2ccccc2)c1=O [SSTN-408] |  | EC50 ([1]; listed as 408): 3.7 µM
Cc1cccnc1NC(=O)c1c(O)c2ccccc2n(Cc2ccccc2)c1=O [SSTN-452] |  | EC50 ([1]; listed as 452): 1.6 µM
CC(C)Cn1c(=O)c(C(=O)Nc2cccc(F)c2)c(O)c2c(N3CCNCC3)cccc21 [SSTN-587_HCl salt, N-(3-fluorophenyl)-4-hydroxy-1-isobutyl-2-oxo-5-(piperazin-1-yl)-1,2-dihydroquinoline-3-carboxamide hydrochloride salt] | 3.8 µM | EC50 ([1]; Homo sapiens, OE33, 168 h): 1.7 µM; IC50 (hNotch1ICD; [3]): 3.76 µM
CC(C)Cn1c(=O)c(C(=O)Nc2cccc(F)c2)c(O)c2c(N3CCN(C)CC3)cccc21 [SSTN-588, N-(3-fluorophenyl)-4-hydroxy-1-isobutyl-5-(4-methylpiperazin-1-yl)-2-oxo-1,2-dihydroquinoline-3-carboxamide] |  | IC50 (hNotch1ICD; [3]): 10.3 µM
CC(C)Cn1c(=O)c(C(=O)Nc2cccc(F)c2)c(O)c2c(N3CCN(C)CC3)cccc21 [SSTN-588_HCl salt, N-(3-fluorophenyl)-4-hydroxy-1-isobutyl-5-(4-methylpiperazin-1-yl)-2-oxo-1,2-dihydroquinoline-3-carboxamide hydrochloride salt] |  | IC50 (hNotch1ICD; [3]): 9.8 µM
Cc1cccnc1NC(=O)c1c(O)c2ccccc2n(CC(C)C)c1=O [compound 513, 4-hydroxy-1-isobutyl-N-(3-methylpyridin-2-yl)-2-oxo-1,2-dihydroquinoline-3-carboxamide] | 11.1 µM | 
COc1ccc2c(c1)c(O)c(C(=O)Nc1ncccc1C)c(=O)n2CC(C)C [compound 514, 4-hydroxy-1-isobutyl-6-methoxy-N-(3-methylpyridin-2-yl)-2-oxo-1,2-dihydroquinoline-3-carboxamide] | 13.6 µM | 
Cc1cc(NC(=O)c2c(O)c3ccccc3n(CC(C)C)c2=O)on1 [compound 517, 4-hydroxy-1-isobutyl-N-(3-methylisoxazol-5-yl)-2-oxo-1,2-dihydroquinoline-3-carboxamide] |  | IC50 (hNotch1ICD; Notch1 Reporter Assay IC50, µM, 293A cells, 24 h, luciferase normalized to cell viability): 22.6 µM
CC(C)Cn1c(=O)c(C(=O)Nc2ccccn2)c(O)c2ccccc21 [compound 518, 4-hydroxy-1-isobutyl-2-oxo-N-(pyridin-2-yl)-1,2-dihydroquinoline-3-carboxamide] | 18.7 µM | 

Structure (SMILES) | IC50 (hNotch1ICD; [2]) | further results
CC(C)Cn1c(=O)c(C(=O)Nc2ncccc2O)c(O)c2ccccc21 [compound 519, 4-hydroxy-N-(3-hydroxypyridin-2-yl)-1-isobutyl-2-oxo-1,2-dihydroquinoline-3-carboxamide] | 17.8 µM | 
CC(C)Cn1c(=O)c(C(=O)Nc2cc(Cl)ccn2)c(O)c2ccccc21 [compound 526, N-(4-chloropyridin-2-yl)-4-hydroxy-1-isobutyl-2-oxo-1,2-dihydroquinoline-3-carboxamide] | 20.3 µM | 
CC(C)Cn1c(=O)c(C(=O)Nc2cc(N3CCOCC3)ccn2)c(O)c2ccccc21 [compound 527, 4-hydroxy-1-isobutyl-N-(4-morpholinopyridin-2-yl)-2-oxo-1,2-dihydroquinoline-3-carboxamide] | 8.5 µM | 
CC(C)Cn1c(=O)c(C(=O)Nc2ncco2)c(O)c2ccccc21 [compound 528, 4-hydroxy-1-isobutyl-N-(oxazol-2-yl)-2-oxo-1,2-dihydroquinoline-3-carboxamide] | 14.3 µM | 
COc1ccnc(NC(=O)c2c(O)c3ccccc3n(CC(C)C)c2=O)c1 [compound 532, 4-hydroxy-1-isobutyl-N-(4-methoxypyridin-2-yl)-2-oxo-1,2-dihydroquinoline-3-carboxamide] | 12.4 µM | 
CC(C)Cn1c(=O)c(C(=O)Nc2ccn(C)n2)c(O)c2ccccc21 [compound 533, 4-hydroxy-1-isobutyl-N-(1-methyl-1H-pyrazol-3-yl)-2-oxo-1,2-dihydroquinoline-3-carboxamide] | 22.5 µM | 
Cc1ccccc1NC(=O)c1c(O)c2ccccc2n(CC(C)C)c1=O [compound 535, 4-hydroxy-1-isobutyl-2-oxo-N-(o-tolyl)-1,2-dihydroquinoline-3-carboxamide] | 5.9 µM | 
CC(C)Cn1c(=O)c(C(=O)Nc2ccccc2F)c(O)c2ccccc21 [compound 537, N-(2-fluorophenyl)-4-hydroxy-1-isobutyl-2-oxo-1,2-dihydroquinoline-3-carboxamide] | 5.1 µM | 
CC(C)Cn1c(=O)c(C(=O)Nc2ccc(F)cc2)c(O)c2ccccc21 [compound 539, N-(4-fluorophenyl)-4-hydroxy-1-isobutyl-2-oxo-1,2-dihydroquinoline-3-carboxamide] | 6.6 µM | 
Cc1ncccc1NC(=O)c1c(O)c2ccccc2n(CC(C)C)c1=O [compound 540, 4-hydroxy-1-isobutyl-N-(2-methylpyridin-3-yl)-2-oxo-1,2-dihydroquinoline-3-carboxamide] | 18.5 µM | 
CC(C)Cn1c(=O)c(C(=O)NCc2ccco2)c(O)c2ccccc21 [compound 541, N-(furan-2-ylmethyl)-4-hydroxy-1-isobutyl-2-oxo-1,2-dihydroquinoline-3-carboxamide] | 15.1 µM | 
Cc1cc(NC(=O)c2c(O)c3ccccc3n(CC(C)C)c2=O)n[nH]1 [compound 549, 4-hydroxy-1-isobutyl-N-(5-methyl-1H-pyrazol-3-yl)-2-oxo-1,2-dihydroquinoline-3-carboxamide] | 10.1 µM | 
Cc1ccncc1NC(=O)c1c(O)c2ccccc2n(CC(C)C)c1=O [compound 550, 4-hydroxy-1-isobutyl-N-(4-methylpyridin-3-yl)-2-oxo-1,2-dihydroquinoline-3-carboxamide] | 20.8 µM | 
Cc1cnccc1NC(=O)c1c(O)c2ccccc2n(CC(C)C)c1=O [compound 551, 4-hydroxy-1-isobutyl-N-(3-methylpyridin-4-yl)-2-oxo-1,2-dihydroquinoline-3-carboxamide] | 6.7 µM | 
CC(C)Cn1c(=O)c(C(=O)Nc2cccc(N3CCOCC3)c2)c(O)c2ccccc21 [compound 554, 4-hydroxy-1-isobutyl-N-(3-morpholinophenyl)-2-oxo-1,2-dihydroquinoline-3-carboxamide] | 4.3 µM | 
Cc1cccnc1NC(=O)c1c(O)c2c(Br)cccc2n(CC(C)C)c1=O [compound 563, 5-bromo-4-hydroxy-1-isobutyl-N-(3-methylpyridin-2-yl)-2-oxo-1,2-dihydroquinoline-3-carboxamide] | 8 µM | 

From patent US20230203003A1, “Notch Inhibitors and Uses Thereof” (StemSynergy Therapeutics, Inc., priority 2020, published 2023)
